Results taken from patent US20210187046A1, “COCKTAIL COMPOSITIONS COMPRISING RESPIRATORY ANTIBACTERIAL PHAGES AND METHODS OF USE THEREOF” (priority 2019, published 2021).
Converted amounts (≈) assume the structure as drawn. Where two headings read alike, the source gives them in different places.

Key:
[1] = tested on: P. aeruginosa PSA_1992/05; experiment: Broth microdilution MIC with and without bacteriophage cocktail; type: cell-based, Pseudomonas aeruginosa
Experimental: The method was developed and optimized as a proof of concept for P. aeruginosa using a single strain infected by all three phages (PSA_1992/05; NCIMB deposit 42914)). […] Different time points (4 h, 6 h, 12 h and 18 h) were used for optimization of the technique, but final readings were determined at 18 h. All experiments were conducted in duplicates. The study was optimized for the individual bacteriophages and a final assay is presented here containing data for the complete cocktail.

[2] = tested on: K. pneumoniae bacterial isolates (n=36); experiment: Antibiotic susceptibility testing by disk diffusion; type: cell-based, Klebsiella pneumoniae; details: EUCAST cut-off values
Experimental: A selected group of K. pneumoniae bacterial isolates were collected between 2005 and 2019 (n=36), in at least 7 different health care facilities. Overall, these isolates were collected from hospital settings (n=25), outpatients (n=9), or from unknown origin (n=2), and from a diversity of biological products [urine (n=10), respiratory secretions (n=5), unknown (n=8), abdominal fluids (n=5) and others (n=8)]. This panel was evaluated with regards to antibiotic susceptibility testing by disk diffusion method against a selected panel of clinically important antibiotics (β-lactam antibiotics—ampicillin, ceftazidime, piperacillin with tazobactam, and meropenem; fluoroquinolones—ciprofloxacin; aminoglycosides—gentamicin; and sulphonamides—trimethoprim with sulfamethoxazole). Interpretation of results was performed according to the cut-off values recommended by the European Committee on Antimicrobial Susceptibility Testing (EUCAST, http://mic.eucast.org/Eucast2/). Isolates were considered multidrug resistant (MDR) when presenting non-susceptibility to three or more structurally unrelated classes of antibiotics (Magiorakos A P, Srinivasan A, Carey R B., Carmeli Y, Falagas M E, et al. 2011. Clin Microbiol Infect 2012; 18: 268-281).

[3] = Pseudomonas aeruginosa, No Phage, reading at 18 h, read-out: MIC
[4] = in the presence of bacteriophage cocktail TP-122A at MOI 0.1, 18 h
[5] = in the presence of bacteriophage cocktail TP-122A at MOI 1, 18 h
[6] = in the presence of bacteriophage cocktail TP-122A at MOI 10, 18 h

| Molecule | MIC [1, 3] [µg/mL] | MIC [1, 4] [µg/mL] | MIC [1, 5] [µg/mL] | MIC [1, 6] [µg/mL] | MIC ([1]; No Phage, reading at 18 h) | isolates non-susceptible [2] [%] | MIC ([1]; Pseudomonas aeruginosa, 18 h) [µg/mL] |
| --- | --- | --- | --- | --- | --- | --- | --- |
| NCC[C@H](O)C(=O)N[C@@H]1C[C@H](N)[C@@H](O[C@H]2O[C@H](CN)[C@@H](O)[C@H](O)[C@H]2O)[C@H](O)[C@H]1O[C@H]1O[C@H](CO)[C@@H](O)[C@H](N)[C@H]1O [AK, amikacin] | 0.5 (≈ 0.854 µM) | ≤0.016 | ≤0.016 | ≤0.016 | – | – | – |
| CC(C)(O/N=C(\C(=O)N[C@@H]1C(=O)N2C(C(=O)[O-])=C(C[n+]3ccccc3)CS[C@H]12)c1csc(N)n1)C(=O)O [C/ZD, ceftazidime] | – | ≤0.016 | ≤0.016 | ≤0.016 | .5 µg/mL (≈ 0.915 µM) | 86.1 | – |
| CC(=O)NC[C@H]1CN(c2ccc(N3CCOCC3)c(F)c2)C(=O)O1 [LZD, linezolid] | > 32 | ≤0.016 | ≤0.016 | ≤0.016 | – | – | – |
| C[C@@H](O)[C@H]1C(=O)N2C(C(=O)O)=C(S[C@@H]3CN[C@H](C(=O)N(C)C)C3)[C@H](C)[C@H]12 [MEM, meropenem] | 0.25 (≈ 0.652 µM) | ≤0.016 | ≤0.016 | ≤0.016 | – | 77.8 | – |
| CN[C@H](CC(C)C)C(=O)N[C@H]1C(=O)N[C@@H](CC(N)=O)C(=O)N[C@H]2C(=O)N[C@H]3C(=O)N[C@H](C(=O)N[C@H](C(=O)O)c4cc(O)cc(O)c4-c4cc3ccc4O)[C@H](O)c3ccc(c(Cl)c3)Oc3cc2cc(c3O[C@@H]2O[C@H](CO)[C@@H](O)[C@H](O)[C@H]2O[C@H]2C[C@](C)(N)[C@H](O)[C@H](C)O2)Oc2ccc(cc2Cl)[C@H]1O [VA, vancomycin] | – | ≤0.016 | ≤0.016 | ≤0.016 | – | – | > 32 |
| CC1(C)S[C@@H]2[C@H](NC(=O)[C@H](N)c3ccccc3)C(=O)N2[C@H]1C(=O)O [ampicillin] | – | – | – | – | – | 100 | – |
| O=C(O)c1cn(C2CC2)c2cc(N3CCNCC3)c(F)cc2c1=O [ciprofloxacin] | – | – | – | – | – | 91.7 | – |
| colistin [CS] | – | ≤0.016 | ≤0.016 | ≤0.016 | 0.25 µg/mL | – | – |
| gentamicin | – | – | – | – | – | 72.2 | – |
| piperacillin with tazobactam [TZP] | – | ≤0.016 | ≤0.016 | ≤0.016 | 1 µg/mL | 97.2 | – |
| trimethoprim with sulfamethoxazole | – | – | – | – | – | 88.9 | – |
